Source: patent publication US20260217652A1, “PHENYL-SUBSTITUTED HETEROARYL COMPOUND AND PHARMACEUTICAL COMPOSITION COMPRISING SAME, PREPARATION METHOD THEREFOR AND USE THEREOF” (SHANGHAI MEIYUE BIOTECH DEVELOPMENT CO., LTD., priority 2023, published 2026)

Experiments:
[1] = system: TNF-α in human PBMC cells; test: In vitro TNF-α activity assay in human PBMC cell supernatant (LPS, ELISA); format: cell-based; details: Homo sapiens, PBMC, 24 h, LPS 100 ng/mL, read-out: p38 MAPK/TNF-α IC50
Description: The inhibitory effect of the compound on TNF-α in the supernatant of human PBMC cells was evaluated using an ELISA detection kit (Beyotime, PI518). The test compound was dissolved in DMSO to obtain a 10 mM stock solution and stored at −20° C. for future use. The initial concentration of the compound was […], followed by 5-fold serial dilution to obtain 6 concentrations. Cells were plated in duplicate, and ELISA was performed in single wells. The final concentration of DMSO was 0.4%. Alternatively, the initial concentration of the compound, dilution factor, number of concentration gradients, and replicates could be adjusted based on the specific screening conditions.
Fresh human peripheral blood mononuclear cells (PBMCs) (Sailybio) were seeded at a density of 2×10^5 cells per well in a 96-well plate (Corning, 3599), with each well containing 100 μL of RPMI-1640 (Gibco #A1049101)+10% FBS (Gibco, 10099141C), and incubated overnight at 37° C. under 5% CO2. Test compounds were added to the 96-well culture plate at a volume of 25 μL per well. After 1 hour, 5 μL of LPS was added to achieve a final concentration of 100 ng/mL. No LPS and compound were added to the negative control wells, and no compound was added to the positive control wells. The mixture was further incubated for 24 hours at 37° C. under 5% CO2. Subsequently, the cell culture supernatant was collected by centrifugation at 500 rcf for 8 minutes. The concentration of TNF-α was measured according to the operation manual of the ELISA kit. The concentration-effect curve was fitted using GraphPad Prism 8 software, and the compound concentration resulting in 50% inhibition, IC50, was calculated.

p38 MAPK/ATF2 = molecular target: T1, p38 MAPK/ATF2 (Homo sapiens, UniProt Q16539); test: In vitro activity assay of p38 MAPK/ATF2 (HTRF); format: biochemical; details: p38α, Human ATF2 Protein, ATP; 35 min at 20° C.
T1 construct: purchased Carna Biosciences (p38α); Sino Biological (ATF2) 04-152; 11599-H20B
Description: The inhibitory effect of the compound on p38a-catalyzed ATF2 was evaluated by the HTRF method. The test compound was dissolved in DMSO to obtain a 10 mM stock solution and stored at −20° C. for future use. The initial concentration of the compound was 10 μM, with 0.25% DMSO, 5-fold serial dilution, 8 concentrations, and duplicate wells. The reaction buffer, consisting of 40 mM Tris pH 7.5, 20 mM MgCl2, 0.1 mg/mL BSA, and 50 μM DTT, was used to prepare 3.5×p38α (MAPK14, Carna Biosciences, 04-152) protein working solution, 3.5×Human ATF2 Protein (Sino Biological, 11599-H20B) working solution, and 3.5×ATP working solution. The reaction was terminated with 10 mM EDTA. The final 14 μL reaction system was performed in a 96-well plate (cisbio, 66PL96025), containing 0.29 ng/μL p38a, […] Human ATF2 Protein, and 25 µM ATP. After reacting at 20° C. for 35 min, the pre-prepared antibody solution (cibio, 63ADK015PEG, Phospho-ATF2 Eu Cryptate antibody, Phospho-ATF2 d2 antibody, diluted 40-fold with Detection buffer) was added to each well and incubated overnight at room temperature. The samples were then measured using a microplate reader (HTRF compatible reader). The concentration-effect curve was fitted using GraphPad Prism 8 software, and the compound concentration resulting in 50% inhibition, IC50, was calculated.

IC50 (p38 MAPK/ATF2): 1850 nM
Compound: CNC(=O)c1cccc(-c2ncc(C)c(-n3c(C)cc(OCc4ncc(F)cc4F)c(Cl)c3=O)c2F)c1 [Compound 31-P1]
IC50 [1]: 3.79 nM
